Reference: the SangsterLogP compilation

What was measured:
[1] = not given; remark: listed apart in the source
[2] = method code SF, from DOI: 10.1007/bf02222191, PMID: 2473627
[3] = method code SF-HPLC, from DOI: 10.1016/j.ijpharm.2010.12.025, PMID: 21185925
[4] = not given; remark: listed apart in the source
[5] = method code SF-HPLC, from DOI: 10.1002/jps.23218, PMID: 22644947; details: pH 7.0
[6] = method code SF-RC, from DOI: 10.1111/j.2042-7158.1981.tb11724.x
[7] = not given; remark: listed apart in the source
[8] = method code SF-RC, from DOI: 10.1002/jlcr.1930
[9] = method code SF, from DOI: 10.1021/bk-1995-0606.ch008
[10] = not given; remark: listed apart in the source
[11] = not given; remark: listed apart in the source
[12] = not given; remark: listed apart in the source
[13] = method code SF-HPLC, from DOI: 10.1016/s0223-5234(02)01360-0, PMID: 12008054; details: pH 7.4
[14] = not given; remark: listed apart in the source
[15] = not given; remark: listed apart in the source
[16] = not given; remark: listed apart in the source
[17] = method code SF-AS, from DOI: 10.1021/jm00392a004, PMID: 3625703; details: pH 6.9
[18] = not given; remark: listed apart in the source
[19] = method code SF-AS, from DOI: 10.1016/0048-3575(88)90061-2
[20] = not given; remark: listed apart in the source
[21] = method code SF-RC, from DOI: 10.1016/j.ejmech.2016.07.069, PMID: 27565554; details: pH 7.4
[22] = method code SF-HPLC, from DOI: 10.1002/jps.2600830510, PMID: 8071813
[23] = method code SF-RC, from DOI: 10.1016/j.bmcl.2015.05.048, PMID: 26073008; details: pH 7.4
[24] = method code SF-HPLC, from DOI: 10.1002/jps.23034, PMID: 22213574; details: pH 7.4
[25] = method code SF, from DOI: 10.1016/j.bmcl.2012.08.112, PMID: 23010264; details: pH 7.4
[26] = not given; remark: listed apart in the source
[27] = method code SF-HPLC, from Liang, J.; Deng, J. (2011). Determination of n-octanol/wanter Partition Coefficient of Mangiferin. West China Journal of Pharmaceutical Sciences, 26(2)193-195.; details: pH 2.5
[28] = not given; remark: listed apart in the source
[29] = method code SF, from DOI: 10.1021/jm00123a006, PMID: 2918500; details: pH 7.4
[30] = not given; remark: listed apart in the source
[31] = method code SF-AS, from PMID: 4096735; details: pH 7.4
[32] = not given; remark: listed apart in the source
[33] = method code SF, from DOI: 10.1111/j.1365-2958.1992.tb00853.x, PMID: 1640833
[34] = method code SF-HPLC, from Suo, X.; Li, M.; Wang, Y.; Zhu, S. (2010). Study on oil-water partition coefficient of hydroxycamptothecin and its absorption efficiency in rat small intestine. Chinese Traditional Patent Medicine, …; details: pH 7.4
[35] = method code SF-AS, from DOI: 10.1002/pauz.19770060602
[36] = method code G-RC, from DOI: 10.1016/0300-483x(85)90031-9, PMID: 4049435
[37] = method code SF-HPLC, from DOI: 10.1211/0022357011778025, PMID: 11732751; details: pH 5.0
[38] = not given; remark: listed apart in the source

Cc1ccc(/C(=C\CN2CCCC2)c2ccccn2)cc1
logP: 3.87

O=C(NN1C(=O)[C@@H]2[C@@H]3C=C[C@@H]([C@H]4C[C@@H]34)[C@@H]2C1=O)c1ccc(C(F)(F)F)cc1
logP [1]: 2.36

CC(C)NCC(O)COc1ccccc1C1CCCCC1 (centres undefined)
logP [2]: 2.86

CCCc1nc(C[C@H](NC(=O)[C@@H]2CCC(=O)N2)C(=O)N2CCC[C@H]2C(N)=O)c[nH]1
logP [3]: -1.07

CN1CCN(CC(=O)N2c3ccccc3C(=O)Nc3cccnc32)CC1
logP [4]: 0.1

CCOC(=O)N(CCN(C(=O)OCC)C(=O)OCC)CCN(C(=O)OCC)C(=O)OCC
logD [5]: 2.3

CCC(=O)O[C@H]1CC[C@H]2[C@@H]3CCC4=CC(=O)CC[C@]4(C)[C@H]3CC[C@]12C
logP [6]: 3.72

C[C@H]1[C@H](N2CCS(=O)(=O)CC2)O[C@@H]2O[C@@]3(C)CC[C@H]4[C@H](C)CC[C@@H]1[C@@]24OO3
logP [7]: 2.49

COc1cc2c(cc1OS(N)(=O)=O)CC[C@@H]1[C@@H]2CC[C@]2(C)[C@@H](OS(N)(=O)=O)CC[C@@H]12
logP [8]: 2.25

O=C(Nc1ccc(F)cc1F)c1cccnc1Oc1cccc(C(F)(F)F)c1
logP [9]: 4.49

O=S(=O)(c1ccc(F)cc1)C1CCN(CCc2ccc(F)cc2F)CC1
logP [10]: 2.47

CC(C)(C)NCC(COc1nsnc1N1CCOCC1)OC(=O)C1CCC1 (centres undefined)
logP [11]: 2.36

COC(=O)c1cc(OC)c2c(c1-c1c(CO)cc(OC)c3c1OCO3)OCO2
logP [12]: 1.7

COc1cc2nc(N3CCN(C(=O)C4CCCO4)CC3)nc(N)c2cc1OC (centres undefined)
logD [13]: 1.14

CCN(CC)CCCN1c2ccccc2Sc2ccc(Cl)cc21
logP [14]: 6.46

Cc1cc2c(-c3ccccn3)c[nH]c2c(C(=O)Nc2ncccc2C)n1
logP [15]: 4.7

O=C(NN(C(=O)c1ccccc1)c1ccccc1)c1ccccc1
logP [16]: 3.32

CCCCCCCCCC1(c2ccncc2)CCC(=O)NC1=O (centres undefined)
logD [17]: 4.64

CO[C@H]1C[C@]2(C)[C@@H](O)CC[C@H]2[C@@H]2CCc3cc(O)ccc3[C@H]21
logP [18]: 2.72

O=C(NC(=O)c1c(F)cccc1F)Nc1ccc(Oc2ncc(Cl)cc2Cl)cc1
logP [19]: 3.27

COc1cc2c(cc1O)CC[C@@H]1C2CC[C@]2(C)[C@@H](O)CC[C@@H]12 (stereo in doubt)
logP [20]: 2.86

COc1cc2c(cc1I)C/C(=C\c1ccc(N(C)C)cc1)C2=O
logD [21]: 3.45

O=C(OCCN1CCOCC1)c1ccccc1Nc1c(Cl)cccc1Cl
logP [22]: 2.72

COc1ccc(/C=C/c2cc(=O)c3cc(I)ccc3o2)cc1OC
logD [23]: 2.14

O=S(=O)(c1ccc(C(F)(F)F)cc1)N1c2cc(F)c(F)cc2-c2[nH]ncc2C1C1CC1 (centres undefined)
logD [24]: 3.91

COCC(C1CC1)n1cc(Cl)nc(Nc2cc(C)c(OC)cc2C)c1=O (centres undefined)
logD [25]: 4.4

CNCCC=C1c2ccccc2CCc2ccccc21
logP [26]: 4.4

O=c1c2cc(O)c(O)cc2oc2cc(O)c([C@@H]3O[C@H](CO)[C@@H](O)[C@H](O)[C@H]3O)c(O)c12
logD [27]: 0.36

CC(C)CC(O)C(O)C(CC1CCCCC1)NC(=O)OC(C)(C)C (centres undefined)
logP [28]: 3.98

[N-]=[N+]=Nc1ccc(CCN2CCN(c3cccc(C(F)(F)F)c3)CC2)cc1I
logD [29]: 3.33

C=CCN1CC[C@@]23CCCC[C@H]2[C@@H]1Cc1ccc(O)cc13
logP [30]: 3.48

CCOC(=O)CCCCOc1ccc(-c2nc3c(N)nc(N)nc3nc2N)cc1
logD [31]: 0.8

Cc1onc(-c2ccccc2)c1C(=O)NC1C(=O)N2C1SC(C)(C)C2C(=O)O (centres undefined)
logP [32]: 2.34

C[C@]12CCC(=O)C[C@@H]1CC[C@@H]1[C@@H]2CC[C@]2(C)C(=O)CC[C@@H]12
logP [33]: 3.6

CC[C@@]1(O)C(=O)OCc2c1cc1n(c2=O)Cc2cc3cc(O)ccc3nc2-1
logD [34]: 1.33

O=C1CN=C(c2ccccc2)c2cc(Cl)ccc2N1CC1CC1
logP [35]: 3.31

O=[N+]([O-])c1c2ccccc2c2ccc3cccc4ccc1c2c43
logP [36]: 5.44

CCN(CC)C(=O)C(C#N)=Cc1cc(OC(=O)C(C)(C)C)c(O)c([N+](=O)[O-])c1
logD [37]: 2.24

CC1N=C2C3CC(c4ccccc4)CCC3C=CN2C1C (centres undefined)
logP [38]: 3.9
